Structures can show the parent of a compound that is named as a salt.
Molecular target: T1, Rat FAAH (Rattus norvegicus, UniProt P97612)
T1 construct: expressed in transfected cells; host or cells: SK-N-MC cells stably transfected with rat FAAH cDNA (G418 selection)
T1 sequence (P97612 1-579): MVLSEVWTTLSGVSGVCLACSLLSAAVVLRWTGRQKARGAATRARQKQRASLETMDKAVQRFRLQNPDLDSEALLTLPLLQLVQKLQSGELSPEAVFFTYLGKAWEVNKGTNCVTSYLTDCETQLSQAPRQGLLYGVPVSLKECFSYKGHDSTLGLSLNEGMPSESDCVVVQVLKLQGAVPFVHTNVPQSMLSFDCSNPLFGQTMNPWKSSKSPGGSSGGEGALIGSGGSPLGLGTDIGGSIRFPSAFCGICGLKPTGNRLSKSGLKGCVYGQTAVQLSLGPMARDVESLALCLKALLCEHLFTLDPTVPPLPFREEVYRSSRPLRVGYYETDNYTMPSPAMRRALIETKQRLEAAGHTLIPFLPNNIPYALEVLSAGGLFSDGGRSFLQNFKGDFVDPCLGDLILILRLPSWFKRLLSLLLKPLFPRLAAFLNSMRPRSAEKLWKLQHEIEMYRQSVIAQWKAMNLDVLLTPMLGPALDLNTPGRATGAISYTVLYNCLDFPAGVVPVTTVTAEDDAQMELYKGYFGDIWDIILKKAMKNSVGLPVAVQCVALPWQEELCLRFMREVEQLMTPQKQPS
Assay: Assay Method 2: rat FAAH assay (3H-anandamide hydrolysis in cell homogenate)
Format: biochemical
Details: read-out: Assay 2 IC50
Experimental: A. Transfection of Cells with Rat FAAH A 10-cm tissue culture dish with a confluent monolayer of SK-N-MC cells was split 2 days (d) prior to transfection. Using sterile technique, the media was removed and the cells were detached from the dish by the addition of trypsin. One fifth of the cells were then placed onto a new 10-cm dish. Cells were grown in a 37° C. incubator with 5% CO2 in Minimal Essential Media Eagle with 10% Fetal Bovine Serum. After 2 d, cells were approximately 80% confluent. These cells were removed from the dish with trypsin and pelleted in a clinical centrifuge. The pellet was re-suspended in 400 μL complete media and transferred to an electroporation cuvette with a 0.4 cm gap between the electrodes. Supercoiled rat FAAH cDNA (1 μg) was added to the cells and mixed. The voltage for the electroporation was set at 0.25 kV, and the capacitance was set at 960 μF. After electroporation, the cells were diluted into complete media (10 mL) and plated onto four 10-cm dishes. Because of the variability in the efficiency of electroporation, four different concentrations of cells were plated. The ratios used were 1:20, 1:10, and 1:5, with the remainder of the cells being added to the fourth dish. The cells were allowed to recover for 24 h before adding the selection media (complete media with 600 μg/mL G418). After 10 d, dishes were analyzed for surviving colonies of cells. Dishes with well-isolated colonies were used. Cells from individual colonies were isolated and tested. […] B. FAAH Assay T84 frozen cell pellets or transfected SK-N-MC cells (contents of 1×15 cm culture dishes) were homogenized in 50 mL of FAAH assay buffer (125 mM Tris, 1 mM EDTA, 0.2% Glycerol, 0.02% Triton X-100, 0.4 mM Hepes, pH 9). […] The reaction mixture was incubated at rt for 1 h. During the incubation, 96-well Multiscreen filter plates (catalog number MAFCNOB50; Millipore, Bedford, Mass., USA) were loaded with 25 of activated charcoal (Multiscreen column loader, catalog number MACL09625, Millipore) and washed once with 100 μL of MeOH. Also during the incubation, 96-well DYNEX MicroLite plates (catalog number NL510410) were loaded with 100 μL of MicroScint40 (catalog number 6013641, Packard Bioscience, Meriden, Conn., USA). After the 1 h incubation, 60 μL of the reaction mixture were transferred to the charcoal plates, which were then assembled on top of the DYNEX plates using Centrifuge Alignment Frames (catalog number MACF09604, Millipore). The unbound labeled ethanolamine was centrifuged through to the bottom plate (5 min at 2000 rpm), which was preloaded with the scintillant, as described above. The plates were sealed and left at rt for 1 h before counting on a Hewlett Packard TopCount. Results for compounds tested in these assays are summarized in Table 1, as an average of results obtained. Compounds were tested in free base or trifluoroacetic acid salt forms. Where activity is shown as greater than (>) a particular value, the value is the solubility limit of the compound in the assay medium or the highest concentration tested in the assay.

| Structure (SMILES) | IC50 |
| --- | --- |
| O=C(Nc1ccc(-n2nccn2)nc1)N1CCC2(CCN(Cc3cccc(Oc4ccc(Cl)cc4)c3)C2)CC1 [Example 1, 2-[3-(4-Chloro-phenoxy)-benzyl]-2,8-diaza-spiro[4.5]decane-8-carboxylic acid (6-[1,2,3]triazol-2-yl-pyridin-3-yl)-amide] | 0.06 µM |
| O=C(Nc1cccnc1)N1CCCC2(CN(Cc3cccc(Oc4ccc(Cl)cc4)c3)C2)C1 [Example 26, 2-(3-(4-chlorophenoxy)benzyl)-N-(pyridin-3-yl)-2,6-diazaspiro[3.5]nonane-6-carboxamide] | 6 µM |
| O=C(Nc1cnc2ccccc2c1)N1CCCC2(CN(Cc3cccc(Oc4ccc(Cl)cc4)c3)C2)C1 [Example 32, 2-(3-(4-chlorophenoxy)benzyl)-N-(quinolin-3-yl)-2,6-diazaspiro[3.5]nonane-6-carboxamide] | 0.01 µM |
| O=C(Nc1ccc(-n2cnnc2)nc1)N1CC2(CCN(Cc3cccc(Oc4ccc(Cl)cc4)c3)CC2)C1 [Example 47, 7-[3-(4-Chloro-phenoxy)-benzyl]-2,7-diaza-spiro[3.5]nonane-2-carboxylic acid (6-[1,2,4]triazol-4-yl-pyridin-3-yl)-amide, trifluoroacetic acid salt] | > 10 µM |
| O=C(Nc1nnn[nH]1)N1CC2(CCN(Cc3cccc(Oc4ccc(Cl)cc4)c3)CC2)C1 [Example 51, 7-[3-(4-Chloro-phenoxy)-benzyl]-2,7-diaza-spiro[3.5]nonane-2-carboxylic acid (1H-tetrazol-5-yl)-amide, trifluoroacetic acid salt] | 0.2 µM |

Results, then the compound that gave them:

| IC50 | Structure (SMILES) |
| --- | --- |
| 0.02 µM | O=C(Nc1cnc(-c2ccccc2)nc1)N1CC2(CCN(Cc3cccc(Oc4ccc(Cl)cc4)c3)CC2)C1 [Example 83, 7-(3-(4-chlorophenoxy)benzyl)-N-(2-phenylpyrimidin-5-yl)-2,7-diazaspiro[3.5]nonane-2-carboxamide, trifluoroacetic acid salt] |
| > 10 µM | O=C(Nc1cccnc1)N1CC2(CCN(Cc3ccc4c(c3)OC(F)(F)O4)CC2)C1 [Example 87, 7-(2,2-Difluoro-benzo[1,3]-dioxol-5-ylmethyl)-2,7-diaza-spiro[3.5]nonane-2-carboxylic acid pyridin-3-ylamide] |
| > 10 µM | O=C(Nc1cccnc1)N1CC2(CCN(Cc3ccccc3Cl)CC2)C1 [Example 98, 7-(2-Chloro-benzyl)-2,7-diaza-spiro[3.5]nonane-2-carboxylic acid pyridin-3-ylamide] |
| > 10 µM | O=C(Nc1cccnc1)N1CC2(CCN(Cc3cccc(Cl)c3)CC2)C1 [Example 99, 7-(3-Chloro-benzyl)-2,7-diaza-spiro[3.5]nonane-2-carboxylic acid pyridin-3-ylamide] |
| > 10 µM | O=C(Nc1cccnc1)N1CC2(CCN(Cc3ccc(C(F)(F)F)cc3)CC2)C1 [Example 102, N-(pyridin-3-yl)-7-(4-(trifluoromethyl)benzyl)-2,7-diazaspiro[3.5]nonane-2-carboxamide] |
| > 10 µM | O=C(Nc1cccnc1)N1CC2(CCN(Cc3ccc(Cl)c(C(F)(F)F)c3)CC2)C1 [Example 109, 7-(4-chloro-3-(trifluoromethyl)benzyl)-N-(pyridin-3-yl)-2,7-diazaspiro[3.5]nonane-2-carboxamide] |

Molecular target: T2, FAAH (Homo sapiens, UniProt O00519)
T2 sequence (O00519 1-579): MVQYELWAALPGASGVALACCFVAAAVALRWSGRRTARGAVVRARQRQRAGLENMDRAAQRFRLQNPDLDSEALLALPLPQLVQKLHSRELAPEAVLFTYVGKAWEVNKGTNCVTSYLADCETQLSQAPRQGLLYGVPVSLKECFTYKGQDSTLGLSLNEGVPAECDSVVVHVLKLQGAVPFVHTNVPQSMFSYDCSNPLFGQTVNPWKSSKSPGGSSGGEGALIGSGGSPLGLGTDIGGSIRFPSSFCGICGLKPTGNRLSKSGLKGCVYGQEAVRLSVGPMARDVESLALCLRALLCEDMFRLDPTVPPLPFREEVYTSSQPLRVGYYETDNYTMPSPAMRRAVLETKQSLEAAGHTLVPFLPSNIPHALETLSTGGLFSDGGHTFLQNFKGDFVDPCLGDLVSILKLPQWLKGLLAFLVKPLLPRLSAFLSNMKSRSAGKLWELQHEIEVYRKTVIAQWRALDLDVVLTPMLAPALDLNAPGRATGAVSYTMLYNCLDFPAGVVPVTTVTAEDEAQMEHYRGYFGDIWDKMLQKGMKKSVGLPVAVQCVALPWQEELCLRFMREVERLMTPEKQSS
Assay: Assay Method 1: human FAAH assay (3H-anandamide hydrolysis in cell homogenate)
Format: biochemical
Parameters: expressed in transfected cells; host or cells: SK-N-MC cells stably transfected with human FAAH cDNA (G418 selection); alternatively T84 cell pellets
Details: read-out: Assay 1 IC50
Experimental: A. Transfection of Cells with Human FAAH
A 10-cm tissue culture dish with a confluent monolayer of SK-N-MC cells was split 2 days (d) prior to transfection. Using sterile technique, the media was removed and the cells were detached from the dish by the addition of trypsin. One fifth of the cells were then placed onto a new 10-cm dish. Cells were grown in a 37° C. incubator with 5% CO2 in Minimal Essential Media Eagle with 10% Fetal Bovine Serum. After 2 d, cells were approximately 80% confluent. These cells were removed from the dish with trypsin and pelleted in a clinical centrifuge. The pellet was re-suspended in 400 μL complete media and transferred to an electroporation cuvette with a 0.4 cm gap between the electrodes. Supercoiled human FAAH cDNA (1 μg) was added to the cells and mixed. The voltage for the electroporation was set at 0.25 kV, and the capacitance was set at 960 μF. After electroporation, the cells were diluted into complete media (10 mL) and plated onto four 10-cm dishes. Because of the variability in the efficiency of electroporation, four different concentrations of cells were plated. […] The cells were allowed to recover for 24 h before adding the selection media (complete media with 600 μg/mL G418). After 10 d, dishes were analyzed for surviving colonies of cells. Dishes with well-isolated colonies were used. Cells from individual colonies were isolated and tested.
T84 frozen cell pellets or transfected SK-N-MC cells (contents of 1×15 cm culture dishes) were homogenized in 50 mL of FAAH assay buffer (125 mM Tris, 1 mM EDTA, 0.2% Glycerol, 0.02% Triton X-100, 0.4 mM Hepes, pH 9). The assay mixture consisted of 50 μL of the cell homogenate, 10 μL of the test compound, and 40 μL of anandamide [1-^3H-ethanolamine] (^3H-AEA, Perkin-Elmer, 10.3 Ci/mmol), which was added last, for a final tracer concentration of 80 nM. The reaction mixture was incubated at rt for 1 h. During the incubation, 96-well Multiscreen filter plates (catalog number MAFCNOB50; Millipore, Bedford, Mass., USA) were loaded with 25 of activated charcoal (Multiscreen column loader, catalog number MACL09625, Millipore) and washed once with 100 μL of MeOH. Also during the incubation, 96-well DYNEX MicroLite plates (catalog number NL510410) were loaded with 100 μL of MicroScint40 (catalog number 6013641, Packard Bioscience, Meriden, Conn., USA). After the 1 h incubation, 60 μL of the reaction mixture were transferred to the charcoal plates, which were then assembled on top of the DYNEX plates using Centrifuge Alignment Frames (catalog number MACF09604, Millipore). The unbound labeled ethanolamine was centrifuged through to the bottom plate (5 min at 2000 rpm), which was preloaded with the scintillant, as described above. The plates were sealed and left at rt for 1 h before counting on a Hewlett Packard TopCount.
Compounds were tested in free base or trifluoroacetic acid salt forms.

| Structure (SMILES) | IC50 |
| --- | --- |
| O=C(Nc1ccc(-n2nccn2)nc1)N1CCC2(CCN(Cc3cccc(Oc4ccc(Cl)cc4)c3)C2)CC1 [Example 1, 2-[3-(4-Chloro-phenoxy)-benzyl]-2,8-diaza-spiro[4.5]decane-8-carboxylic acid (6-[1,2,3]triazol-2-yl-pyridin-3-yl)-amide] | 0.02 µM |
| O=C(Nc1cccnc1)N1CCC2(CCCN2Cc2cccc(Oc3ccc(Cl)cc3)c2)C1 (stereo not drawn) [Example 7, 1-[3-(4-Chloro-phenoxy)-benzyl]-1,7-diaza-spiro[4.4]nonane-7-carboxylic acid pyridin-3-ylamide] | 9 µM |

Other lines, results leading:

| IC50 | Structure (SMILES) |
| --- | --- |
| 0.5 µM | O=C(Nc1cnc2[nH]ccc2c1)N1CC2(CCN(Cc3ccc4c(c3)OC(F)(F)O4)CC2)C1 [Example 89, 7-(2,2-Difluoro-benzo[1,3]dioxol-5-ylmethyl)-2,7-diaza-spiro[3.5]nonane-2-carboxylic acid (1H-pyrrolo[2,3-b]pyridin-5-yl)-amide] |
| 8 µM | O=C(Nc1cccnc1)N1CC2(CCN(Cc3cccc(Oc4ccc(OCC(F)(F)F)cc4)c3)CC2)C1 [Example 128, 7-{3-[4-(2,2,2-Trifluoro-ethoxy)-phenoxy]-benzyl}-2,7-diaza-spiro[3.5]nonane-2-carboxylic acid pyridin-3-ylamide] |

— patent US20120083476A1, “HETEROARYL-SUBSTITUTED SPIROCYCLIC DIAMINE UREA MODULATORS OF FATTY ACID AMIDE HYDROLASE” (Janssen Pharmaceutica NV, priority 2009, published 2012)
